Data on five compounds can be found in PubChem BioAssay AID1259411 (Chemical Carcinogenesis Research Information System (CCRIS), 2018).

Active and inactive are the calls of the source. How the calls were made is not given here.

This data set relates to rodent carcinogenicity bioassays, tumor incidence. In words: CCRIS carcinogenicity studies. In outline: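 Archive of carcinogenicity, mutagenicity, tumor promotion and tumor inhibition results drawn from journals, NCI reports and other sources, expert-reviewed; covers 1985-2011 and is no longer updated.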

Turning to `CN=[N+](C)[O-]`, the carcinogen call is “active; positive; all animals given 20 mg/kg died” (Species: MOUSE, Strain/Sex: A/J/MALE,FEMALE, Route: INTRAPERITONEAL INJECTION, Dose: 5, 10 MG/KG BW ONCE A WEEK FOR 4 WKS, Tumor Site: Type of Lesion: COLON: TUMORS (ADENOMA), % OF TUMOR BEARING MICE WAS 10X HIGHER IN 10 MG/KG GROUP); “active; positive; response of approximately 25% with 2 doses to almost 100% at 4 or 8 d” (Species: MOUSE, Strain/Sex: A/J/MALE,FEMALE, Route: INTRAPERITONEAL INJECTION, Dose: 10 MG/KG ONCE WEEKLY FOR 2, 4, 8 WKS, Tumor Site: Type of Lesion: COLON: ADENOMA); “active; positive; almost 80% incidence” (Species: MOUSE, Strain/Sex: A/J/MALE,FEMALE, Route: SUBCUTANEOUS INJECTION, Dose: 10 MG/KG BW ONCE A WK FOR 4 WK, Tumor Site: Type of Lesion: COLON: ADENOMA); “only 5% of animals at 4 wk treatment developed tumors” (Species: MOUSE, Strain/Sex: AKR/J/MALE,FEMALE, Route: INTRAPERITONEAL INJECTION, Dose: 10 MG/KG BW WEEKLY FOR 2, 4, 8 WKS (STUDY DURATION: 6 MO), Tumor Site: Type of Lesion: COLON: ADENOMAS); “only about 5% developed tumors” (Species: MOUSE, Strain/Sex: AKR/J/MALE,FEMALE, Route: SUBCUTANEOUS, Dose: 10 MG/KG BW WEEKLY FOR 4 WK (STUDY DURATION: 6 MO), Tumor Site: Type of Lesion: COLON: ADENOMA); “active; positive” (Species: MOUSE, Strain/Sex: ICR/MALE, Route: SUBCUTANEOUS, Dose: 0, 0.3 MG/MOUSE IN SALINE 1/WK FOR 20 WK (STUDY DURATION: 36 WK), Tumor Site: Type of Lesion: COLON: ADENOMA OR ADENOCARCINOMA, ADENOMA OR ADENOCARCINOMA OR CARCINOMA, RECTUM: CARCINOMA, BLOOD VESSELS: ANGIOMA OR A, Tumor Site: Type of Lesion: COLON: ADENOMA OR ADENOCARCINOMA, ADENOMA OR ADENOCARCINOMA OR CARCINOMA, RECTUM: CARCINOMA, BLOOD VESSELS: ANGIOMA OR A). Also, the carcinogen call reads like this: (Species: MOUSE, Strain/Sex: SWR/J/MALE,FEMALE, Route: INTRAPERITONEAL INJECTION, Dose: 10 MG/KG BW FOR 2, 4, OR 8 WKS, ONCE A WK (STUDY DURATION: 6 MO), Tumor Site: Type of Lesion: COLON: ADENOMA) “active; positive- tumor incidence 30-100%”; (Species: MOUSE, Strain/Sex: SWR/J/MALE,FEMALE, Route: SUBCUTANEOUS INJECTION, Dose: 10 MG/KG BW ONCE A WK FOR 4 WK, Tumor Site: Type of Lesion: COLON: ADENOMA) “active; positive; response about 30%”; (Species: RAT, Strain/Sex: F344/FEMALE, Route: INTRAVESICULAR, Dose: 0, 2 MG IN 0.2 ML ETHANOL: DEIONIZED WATER (1:3) 2/WK FOR 22 WK (TOTAL DOSE 1.2 MMOL) (STUDY DURATION: LIFESPAN), Tumor Site: Type of Lesion: COLON: TUMOR, ZYMBAL GLAND: TUMOR) “active; positive”; (Species: RAT, Strain/Sex: F344/FEMALE, Route: SUBCUTANEOUS, Dose: 8 MG/KG 1/WK FOR 10 WK, Tumor Site: Type of Lesion: COLON: ADENOMA, CARCINOMA, ADENOCARCINOMA) “active; positive”; (Species: RAT, Strain/Sex: F344/MALE, Route: ORAL, Dose: 0, 1.0, 4.0 MG/WK IN DRINKING WATER FOR 30 WK (STUDY DURATION: LIFETIME), Dose: 0, 1.0, 4.0 MG/WK IN DRINKING WATER FOR 30 WK (STUDY DURATION: LIFETIME), Tumor Site: Type of Lesion: LIVER: CARCINOMA, SARCOMA, KIDNEY: INTERSTITIAL CELL SARCOMA OR NEUROSARCOMA OR RENAL CARCINOMA, COLON: ADENOMA OR CARCI, Tumor Site: Type of Lesion: LIVER: CARCINOMA, SARCOMA, KIDNEY: INTERSTITIAL CELL SARCOMA OR NEUROSARCOMA OR RENAL CARCINOMA, COLON: ADENOMA OR CARCI) “active; positive”; (Species: RAT, Strain/Sex: F344/MALE, Route: ORAL, Dose: 0, 10, 40 MG/ML IN A NEUTRAL DEIONIZED DRINKING WATER SOLUTION 5 D/WK FOR 30 WK (TOTAL DOSE 30; 120 MG) (STUDY DURATION:, Dose: 0, 10, 40 MG/ML IN A NEUTRAL DEIONIZED DRINKING WATER SOLUTION 5 D/WK FOR 30 WK (TOTAL DOSE 30; 120 MG) (STUDY DURATION:, Tumor Site: Type of Lesion: LIVER: CARCINOMA, HEMANGIOSARCOMA, KIDNEY: TUMOR, COLON: ADENOCARCINOMA, ADENOMA, Tumor Site: Type of Lesion: LIVER: CARCINOMA, HEMANGIOSARCOMA, KIDNEY: TUMOR, COLON: ADENOCARCINOMA, ADENOMA) “active; positive”. Moreover, the carcinogen call is, setting by setting: (Species: RAT, Strain/Sex: SPRAGUE-DAWLEY/MALE, Route: SUBCUTANEOUS, Dose: 8 MG/KG 1/WK FOR 24 WK, Tumor Site: Type of Lesion: INTESTINES (LARGE AND SMALL): ADENOCARCINOMA) “active; positive”; (Species: RAT, Strain/Sex: STRAIN-BD, Route: SUBCUTANEOUS, Dose: >6 MG/KG ONCE, Tumor Site: Type of Lesion: COLON: ADENOCARCINOMA, KIDNEY: NEPHROBLASTOMA) “active; positive”; (Species: RAT, Strain/Sex: STRAIN-BD, Route: SUBCUTANEOUS, Dose: >6 MG/KG ONCE, Tumor Site: Type of Lesion: COLON: ADENOCARCINOMA, NERVOUS SYSTEM: NEUROBLASTOMA, KIDNEY: NEPHROBLASTOMA, Tumor Site: Type of Lesion: COLON: ADENOCARCINOMA, NERVOUS SYSTEM: NEUROBLASTOMA, KIDNEY: NEPHROBLASTOMA) “active; positive”; (Species: RAT, Strain/Sex: WISTAR/MALE, Route: SUBCUTANEOUS, Dose: 0, 7.4 MG/KG IN 0.9% SALINE 1/WK FOR 10 WK ADMINISTERED TO RATS MAINTAINED ON NORMAL-PROTEIN (25% CASEIN), LOW-PROTEIN (, Tumor Site: Type of Lesion: COLON: TUMOR) “active; positive”.
Consider `O=S(=O)(O)OCc1ccc2ccc3cccc4ccc1c2c34`, for which the carcinogen call (Species: RAT, Strain/Sex: SPRAGUE-DAWLEY/FEMALE, Route: SUBCUTANEOUS, Dose: 0, 0.2 UMOL IN 0.1 ML SESAME OIL:DMSO (9:1) 1/2 D FOR 20 DOSES (STUDY DURATION: 52 WK), Tumor Site: Type of Lesion: INJECTION SITE: SARCOMA) was “active; positive”.
Turning to `CC1CC(C)(C)CC(OOC(C)(C)C)(OOC(C)(C)C)C1` (stereo unspecified), the carcinogen call is, setting by setting: (Species: MOUSE, Strain/Sex: B6C3F1/FEMALE, Route: ORAL, Dose: 0, 0.25, 0.5% IN DIET FOR 78 WK (STUDY DURATION: 83 WK), Dose: 0, 0.25, 0.5% IN DIET FOR 78 WK (STUDY DURATION: 83 WK)) “inactive; negative”; (Species: MOUSE, Strain/Sex: B6C3F1/MALE, Route: ORAL, Dose: 0, 0.25, 0.5% IN DIET FOR 78 WK (STUDY DURATION: 83 WK), Dose: 0, 0.25, 0.5% IN DIET FOR 78 WK (STUDY DURATION: 83 WK)) “inactive; negative”.
In the case of `O=c1c(O)c(-c2ccc(O)c(O)c2)oc2cc(O)cc(O)c12`, the carcinogen call is “inactive; negative” (Species: RAT, Strain/Sex: F344/FEMALE, Route: ORAL, Dose: 0, 0.1, 0.2% IN DIET FOR DURATION OF STUDY (STUDY DURATION: 64 WK), Dose: 0, 0.1, 0.2% IN DIET FOR DURATION OF STUDY (STUDY DURATION: 64 WK)); “inactive; negative” (Species: RAT, Strain/Sex: F344/FEMALE, Route: ORAL, Dose: 0, 1.25, 5.0% IN DIET FOR 104 WK (STUDY DURATION: 112 WK), Dose: 0, 1.25, 5.0% IN DIET FOR 104 WK (STUDY DURATION: 112 WK)); “inactive; negative” (Species: RAT, Strain/Sex: F344/FEMALE, Route: ORAL, Dose: 0, 1,000, 10,000, 40,000 PPM IN DIET FOR 104 WK (STUDY DURATION: 104 WK), Dose: 0, 1,000, 10,000, 40,000 PPM IN DIET FOR 104 WK (STUDY DURATION: 104 WK)); “inactive; negative” (Species: RAT, Strain/Sex: F344/MALE, Route: ORAL, Dose: 0, 0.1, 0.2% IN DIET FOR DURATION OF STUDY (STUDY DURATION: 64 WK), Dose: 0, 0.1, 0.2% IN DIET FOR DURATION OF STUDY (STUDY DURATION: 64 WK)); “inactive; negative” (Species: RAT, Strain/Sex: F344/MALE, Route: ORAL, Dose: 0, 1.25, 5.0% IN DIET FOR 104 WK (STUDY DURATION: 112 WK), Dose: 0, 1.25, 5.0% IN DIET FOR 104 WK (STUDY DURATION: 112 WK)); “active; positive” (Species: RAT, Strain/Sex: F344/MALE, Route: ORAL, Dose: 0, 1,000, 10,000, 40,000 PPM IN DIET FOR 104 WK (STUDY DURATION: 104 WK), Dose: 0, 1,000, 10,000, 40,000 PPM IN DIET FOR 104 WK (STUDY DURATION: 104 WK), Tumor Site: Type of Lesion: KIDNEY (RENAL TUBULE): ADENOMA).
Take `CCCCCCCCCCCCCCN(C)N=O`: under “Species: RAT, Strain/Sex: F344/MALE, Route: GAVAGE, Dose: 0, 140 MG/ML IN CORN OIL 2/WK FOR 30 WK, STUDY DURATION: 110 WK, Dose: 0, 140 MG/ML IN CORN OIL 2/WK FOR 30 WK, STUDY DURATION: 110 WK, Tumor Site: Type of Lesion: BLADDER”, the carcinogen call is “active; positive”.
